Laboratory results as given in patent publication US20090216010A1, “CRYSTALLINE CARBAPENEM COMPOUND AND PRODUCED METHOD THEREOF” (priority 2008, published 2009).
Read-outs that look alike come from different tables or passages of the source.

What was measured:
[1] = solid form, storage over a long period of time; prior-art forms (EP 126587A, EP 256377, US 4,888,344); cited from earlier work
[2] = stability during storage of the solid form; assay type: physicochemical; conditions: new crystalline form B, compared with non-crystalline form, no data given

stability during storage [2] | SMILES | stability during storage [1] | stability during storage ([2]; listed as crystalline carbapenem compound of the present invention)
– | C[C@@H](O)[C@H]1C(=O)N2C(C(=O)O)=C(S[C@@H]3CN[C@H](C(=O)N(C)C)C3)[C@H](C)[C@H]12 [Compound A in such crystalline form A, (4R,5S,6S)-3-[[(3S,5S)-5-[(dimethylamino)carbonyl]-3-pyrrolidinyl]thio]-6-[(1R)-1-hydroxyethyl]-4-methyl-7-oxo-1-azabicyclo[3.2.0]hept-2-ene-2-carboxylic acid] | much more stable than in a non-crystalline form | –
stable for storage | C[C@@H](O)[C@H]1C(=O)N2C(C(=O)O)=C(S[C@@H]3CN[C@H](C(=O)N(C)C)C3)[C@H](C)[C@H]12 [Compound A in a new crystalline form B, (4R,5S,6S)-3-[[(3S,5S)-5-[(dimethylamino)carbonyl]-3-pyrrolidinyl]thio]-6-[(1R)-1-hydroxyethyl]-4-methyl-7-oxo-1-azabicyclo[3.2.0]hept-2-ene-2-carboxylic acid] | – | much more stable than carbapenem compound in a non-crystalline form
– | C[C@@H](O)[C@H]1C(=O)N2C(C(=O)O)=C(S[C@@H]3CN[C@H](C(=O)N(C)C)C3)[C@H](C)[C@H]12 [Compound A in such non-crystalline form, (4R,5S,6S)-3-[[(3S,5S)-5-[(dimethylamino)carbonyl]-3-pyrrolidinyl]thio]-6-[(1R)-1-hydroxyethyl]-4-methyl-7-oxo-1-azabicyclo[3.2.0]hept-2-ene-2-carboxylic acid] | not sufficiently stable | –
